“And” between values parts separate entries of the source, which are not always exact repeats. Equal values may be shown once. Read-outs that look alike come from different tables or passages of the source.
Key:
[1] = test system: phenylbenzoquinone (PBQ)-induced writhing; test: phenylbenzoquinone-induced writhing test, subcutaneous administration; type: in vivo, mice
Experimental: The procedure is a modification of the method described by Siegmund and Cadmus, Proc. Soc. Exp. Biol. Med., 95, 729-731 (1957), which is used to evaluate both narcotic and non-narcotic analgesics. […] Laboratory mice of either sex, weighing 18-27 g. are used in groups of ten as test subjects. The test compound is administered first in an initial dose determined by the potency of the class of compounds and the route of administration. The test is run first in one group of mice at a relatively high dose to establish significant analgesic activity [see (1) in Table I]. When analgesic activity is observed in four or more of this group, a second test is run on at least three groups of mice to determine the most appropriate dose/time response to use in the subsequent dose response test [see (2) in Table I]. Finally, the ED50 dose is determined by administering different doses to several groups of mice and observing their reaction during the time interval established by the dose/time test [see (3)-(9) in Table I]. Note that the time interval is designated by the median time of the chosen response observation period (e.g. 15, 30, or 45 minutes). In testing each group of mice according to the above protocol, all mice in the group first are administered the selected dose of the test compound solution. Five minutes prior to the observation period (viz. at 5, 20, or 35 minutes after subcutaneous administration of the test compound of at 20, 50, or 80 minutes after oral administration of the test compound) all mice in the group receive 0.25 ml., intraperitoneally, of the writhing agonist (i.e. 0.02% solution of PBQ). At the chosen time interval, the group of mice is observed for a period of ten minutes for writhing.

[2] = test system: rat brain opiate receptors; test: in vitro opiate receptor assay, 3H-naloxone displacement in rat brain homogenate; type: binding; conditions: relative to morphine = 1.0
Experimental: In this procedure, a fasted male Charles River CD rat, 190-290 g., is killed with a guillotine after carbon-dioxideanesthesia, and the brain is rapidly removed. After the cerebellum is excised, the brain is homogenized in 100 vol. (usually 150 ml.) iced 0.05 M Trizma buffer (pH 7.4 at 25°) 0.1 M in sodium chloride in a Brinkman Polytron for 1 min. at setting 3. The homogenate is centrifuged at 49,500 g for 15 min. (Sorvall SS-34 rotor at 19,500 rpm) in 50 ml. propylene tubes. The supernatant is decanted, and the pellets are resuspended in iced buffer to the original volume by use of a motor driven pestle tissue grinder. The homogenate is centrifuged again and resuspended in 10 ml. iced buffer.
Homogenates and samples ae equilibrated at room temperature for 5 minutes before adding 0.05 ml. 3 H-naloxone solution to give a total volume of 0.50 ml. for all tubes.
The assay tubes are hand-shaken every 15 min. for an incubation time of 60 min. at 0° C. The contents are filtered under reduced pressure through Whatman glass-fiber circles (GF/B, 2.4 cm. dia.). […] The vials are hand-shaken immediately, after 30 min., at the end of the day, stored overnight, hand-shaken, and radioactivity is determined by liquid-sintillation spectrometry.
The assay is calculated as follows: […]

tail-flick = conditions: rat, cited from earlier work
[3] = oral administration; cited from earlier work
opiate receptor = conditions: electrically stimulated guinea pig ileum; cited from earlier work
[4] = intracerebroventricularly, intravenously, or subcutaneously; cited from earlier work
[5] = rat lateral brain ventricle; cited from earlier work
[6] = e.g. subcutaneously or intravenously; cited from earlier work
[7] = rat blood plasma; cited from earlier work
[8] = human blood plasma; cited from earlier work

In the case of `CN[C@@H](Cc1ccc(O)cc1)C(=O)N[C@H](CCSC)C(=O)NCC(=O)N(C)[C@@H](Cc1ccccc1)C(=O)N[C@H](CO)C(N)=O` [Example 1, N-Methyl-Tyrosyl-D-Methionyl-Glycyl-N-Methyl-Phenylalanyl-D-Serinamide . Acetate], the “No. Analgesic / Total No. Tested” value ([1]; (1) 10.0 mg/kg subcutaneous, 15 minutes, 10 mg/kg) is reported as 10/10 and 10 of 10, the “No. Analgesic / Total No. Tested” value ([1]; (2) dose/time test, 0.1 mg/kg subcutaneous, 15 minutes) is reported as 4/10 and the “No. Analgesic / Total No. Tested” value ([1]; (2) dose/time test, 0.1 mg/kg subcutaneous, 30 minutes) is reported as 3/10. The “No. Analgesic / Total No. Tested” value ([1]; (2) dose/time test, 0.1 mg/kg subcutaneous, 45 minutes) was 1/10, the “No. Analgesic / Total No. Tested” value ([1]; (3) 0.032 mg/kg subcutaneous, 15 minutes) was 0/10 and the “No. Analgesic / Total No. Tested” value ([1]; (4) 0.056 mg/kg subcutaneous, 15 minutes) was 3/10. For the same compound, the “No. Analgesic / Total No. Tested” value ([1]; (5) dose response test, 0.1 mg/kg subcutaneous, 15 minutes) was 2/10, the “No. Analgesic / Total No. Tested” value ([1]; (6) 0.178 mg/kg subcutaneous, 15 minutes) was 6/10 and the “No. Analgesic / Total No. Tested” value ([1]; (7) 0.316 mg/kg subcutaneous, 15 minutes) was 5/10. The “No. Analgesic / Total No. Tested” value ([1]; (8) 0.56 mg/kg subcutaneous, 15 minutes) was 4/10, the “No. Analgesic / Total No. Tested” value ([1]; (9) 1.00 mg/kg subcutaneous, 15 minutes, 1 mg/kg) was 8/10 and 8 of 10 and the ED50 ([1]; subcutaneous, mice, complete inhibition of PBQ-induced writhing, 15 minutes) was 0.33 mg/kg. The “Relative Displacement Potency” value [2] was 14 and the “Relative Displacement Potency” value ([2]; listed as Example I) was “in excess of ten times”.
In the case of `CN1CC[C@]23c4c5ccc(O)c4O[C@H]2[C@@H](O)C=C[C@H]3[C@H]1C5` [Morphine], the duration of analgesia (tail-flick; morphine comparison) is given as “an hour or more”.
In the case of “(D-Ala^2, Me-Phe^4, Met(0)^5)-enkephalin”, the analgesic activity [3] is given as “elicited analgesic activity”.
In the case of (D-Ala^2, Met(O)^5)-enkephalin, the analgesic activity [3] is given as “elicited analgesic activity”.
In the case of “(D-Met^2, Leu^5) enkephalin, methyl ester”, the “opiate receptor agonist activity” value (opiate receptor) is listed as “strong opiate receptor agonist activity”.
In the case of (D-Met^2, Pro^5)-enkephalin amide, the analgesic activity [4] is given as “elicits analgesic activity”.
For (Ser^5)-enkephalin, the analgesic activity [5] is listed as “eliciting analgesic activity”.
In the case of “H--Tyr--Gly--Gly--Phe--Leu--OH [Leu-enkephalin]”, the “dose producing analgesia equivalent to morphine” value (tail-flick; intraventricular) is listed as 10-20 times that of morphine, the duration of analgesia (tail-flick; intraventricular) is listed as 10 to 12 min and the “activity when administered systemically” value [6] is listed as “virtually inactive”.
In the case of “H--Tyr--Gly--Gly--Phe--Met--OH [Met-enkephalin]”, the “dose producing analgesia equivalent to morphine” value (tail-flick; intraventricular) is given as 10-20 times that of morphine, the duration of analgesia (tail-flick; intraventricular) is given as 10 to 12 min and the “activity when administered systemically” value [6] is given as “virtually inactive”. The “breakdown in blood plasma” value [7] was “broken down” and the “breakdown in blood plasma” value [8] was “broken down”.
